d = 2'-deoxy (DNA); m = 2'-O-methyl
Assays:
A549 [1] = assay: Apoptosis, Cell Death Detection ELISA; type: cell-based, human; conditions: fold over non-specific background, TSA at 100 ng/ml
Method: (§1) In order to determine the effect of HDAC OSDNs on cell growth and cell death through apoptosis, A549 or T24 cells, MDAmb231 cells, and HMEC cells (ATCC, Manassas, Va.) were treated with HDAC OSDNs as previously described.
(§2) For the apoptosis study, cells were analyzed using the Cell Death Detection ELISA ^PLUSkit (Roche Diagnostic GmBH, Mannheim, Germany) according to the manufacturer's directions. Typically, 10,000 cells were plated in 96-well tissue culture dishes for 2 hours before harvest and lysis. Each sample was analyzed in duplicate. ELISA reading was done using a MR700 plate reader (DYNEX Technology, Ashford, Middlesex, England) at 410 nm. The reference was set at 490 nm.

HMEC [2] = assay: Apoptosis, Cell Death Detection ELISA; type: cell-based, human; conditions: fold over non-specific background, TSA at 100 ng/ml
Method: as §1, §2

MDAmb231 [3] = assay: Apoptosis, Cell Death Detection ELISA; type: cell-based, human; conditions: fold over non-specific background, TSA at 100 ng/ml
Method: as §1, §2

T24 [4] = assay: Apoptosis, Cell Death Detection ELISA; type: cell-based, human; conditions: fold over non-specific background, TSA at 100 ng/ml
Method: as §1, §2

mammalian HDAC = conditions: Yoshida et al., J. Biol. Chem 265: 17174-17179 (1990); cited from earlier work
[5] = system: murine erythroleukemia cells; conditions: Yoshida et al, Cancer Research 47: 3688-3691 (1987); cited from earlier work
human HDAC-1 = assay: Antisense ODN screen, HDAC-1 RNA expression by Northern blot in T24 cells; type: cell-based; conditions: 100 nM, 24 hours
Method: (§3) Briefly, human A549 and/or T24 human bladder carcinoma cells were seeded in 10 cm tissue culture dishes one day prior to oligonucleotide treatment. The cell lines were obtained from the American Type Culture Collection (ATCC) (Manassas, Va.) and were grown under the recommended culture conditions. Before the addition of the oligonucleotides, cells were washed with PBS (phosphate buffered saline). Next, lipofectin transfection reagent (GIBCO BRL Mississauga, Ontario, Calif.), at a concentration of 6.25 μg/ml, was added to serum free OPTIMEM medium (GIBCO BRL, Rockville, Md.), which was then added to the cells. The oligonucleotides to be screened were then added directly to the cells (i.e., one oligonucleotide per plate of cells). Mismatched oligonucleotides were used as controls. The same concentration of oligonucleotide (e.g., 50 nM) was used per plate of cells for each oligonucleotide tested.
Cells were harvested, and total RNAs were analyzed by Northern blot analysis. Briefly, total RNA was extracted using RNeasy miniprep columns (QIAGEN). Ten to twenty gg of total RNA was run on a formaldehyde-containing 1% agarose gel with 0.5 M sodium phosphate (pH 7.0) as the buffer system. RNAs were then transferred to nitrocellulose membranes and hybridized with the indicated radiolabeled DNA probes. Autoradiography was performed using conventional procedures.

cyclin B1 = assay: Western blot of cyclin B1 in A549 cells; type: cell-based, human; conditions: 48 hours
Method: (§4) Human cancer A549 cells were treated with AS1, AS2 or MM oligo directed human HDAC1 for 48 hours. Total cell lysates were harvested and analyzed by Western blot using antibodies against human HDAC1, cyclin Bl, cyclin A and actin (all from Santa Cruz Biotechnology, Inc., Santa Cruz, Calif.).

cyclin A = assay: Western blot of cyclin A in A549 cells; type: cell-based, human; conditions: 48 hours
Method: as §4

human HDAC-5 = assay: Antisense ODN screen, HDAC-5 RNA, T24 cells; type: cell-based; conditions: 100 nM, 24 hours, Northern blot
Method: Thirteen phosphorothioate ODNs containing sequences complementary to the 5′ or 3′ untranslated regions of the human HDAC-5 gene (GenBank Accession No. AF039691) were screened as above.
as §3
(§5) Cells were harvested, and total RNAs were analyzed by Northern blot analysis. Briefly, total RNA was extracted using RNeasy miniprep columns (QIAGEN). Ten to twenty gg of total RNA was run on a formaldehyde-containing 1% agarose gel with 0.5 M sodium phosphate (pH 7.0) as the buffer system. […]

human HDAC-2 = assay: Antisense ODN screen, HDAC-2 RNA, T24 cells; type: cell-based; conditions: 100 nM, 24 hours, Northern blot
Method: Twenty-four phosphorothioate ODNs containing sequences complementary to the 5′ or 3′ UTR of the human HDAC-2 gene (GenBank Accession No. U31814) were screened as above. […] HDAC-2 MM was created as a control; compared to the antisense oligo, it contains a 7-base mismatch.
as §3
(§6) Cells were harvested, and total RNAs were analyzed by Northern blot analysis. Briefly, total RNA was extracted using RNeasy miniprep columns (QIAGEN). […]

HDAC-2 protein = assay: Western blot of HDAC isotype protein expression in A549 cells, HDAC-2; type: cell-based, human; conditions: 50 nM, 48 hours
Method: (§7) OSDN treatment conditions were as previously described.
(§8) Cells were lysed in buffer containing 1% Triton X-100, 0.5% sodium deoxycholate, 5 mM EDTA, 25 mM Tris-HC1, pH 7.5, plus protease inhibitors. Total protein was quantified by the protein assay reagent from Bio-Rad (Hercules, Calif.). 100 ug of total protein was analyzed by SDS-PAGE. Next, total protein was transferred onto a PVDF membrane and probed with various HDAC-specific primary antibodies. Rabbit anti-HDAC-1 (H-51), anti-HDAC-2 (H-54) antibodies (Santa Cruz Biotechnologies, Santa Cruz, Calif.) were used at 1:500 dilution. Rabbit anti-HDAC-3 antibody (Sigma, St. Louis, Mo.) was used at a dilution of 1:1000. Anti-HDAC-4 antibody was prepared as previously described (Wang, S. H. et al., (1999) Mol. Cell. Biol. 19:7816-27), and was used at a dilution of 1:1000. Anti-HDAC-6 antibody was raised by immunizing rabbits with a GST fusion protein containing a fragment of HDAC-6 protein (amino acid #990 to #1216, GenBank Accession No. AAD29048). Rabbit antiserum was tested and found only to react specifically to the human HDAC-6 isoform. HDAC-6 antiserum was used at 1:500 dilution in Western blots to detect HDAC-6 in total cell lysates. Horse Radish Peroxidase conjugated secondary antibody was used at a dilution of 1:5000 to detect primary antibody binding. […]

MDAmb231 [6] = assay: Cell growth inhibition, trypan blue cell count; type: cell-based, human; conditions: MDAmb231 cancer cells, 50 nM, 72 hours
Method: as §1
(§9) Cells were harvested and cell numbers counted by trypan blue exclusion using a hemocytometer. Percentage of inhibition was calculated as (100—AS cell numbers/control cell numbers) %.

A549 cells = assay: Growth in soft agar, colony count; type: cell-based, human; conditions: colonies counted after three weeks
Method: 1.3 g granulated agar (DIDFCO) was added to 100 ml deionized water and boiled in a microwave to sterilize. The boiled agar was held at 55 C until further use. Iscove's Modified Dulbecco×s Medium (GIBCO/BRL), 100× Penicillin-Streptomycin-Glutamine (GIBCO/BRL) and fetal bovine serum (medicorp) were pre-warmed at 37 C. To 50 ml sterile tubes was added 9 ml Isove's medium, 2 ml fetal bovine serum and 0.2 ml 100× Pen-Strep-Gln. Then 9 ml 55 C 1.3% agar was added to each tube. The tube contents were mixed immediately, avoiding air bubbles, and 2.5 ml of the mixture was poured into each sterile 6 cm petri dish to form a polymerized bottom layer. Dishes with polymerized bottom layers were then put in a CO2 incubator at 37 C until further use. In 50 ml sterile tubes were prewarmed at 37 C for each 4 cell lines/samples, 20 ml Iscove's medium, 0.4 ml 100× Pen-Strep-Gln and 8 ml fetal bovine serum. Cells were trypsinized and counted by trypan blue staining and 20,000 cells were aliquotted into a sterile 15 ml tube. To the tube was then added DMEM with low glucose (GIBCO/BRL)+10% fetal bovine serum+Pen-Strep-Gln to a final volume of 1 ml. To the prewarmed 37 C mix in the 50 ml tube was quickly added 8 ml 55 C 1.3% agar, which was then mixed well. […] Plates were wrapped up in foil paper and incubated in a CO2 incubator at 37° C. for three weeks, at which time colonies in agar are counted.

human cancer cells = assay: Cell growth and apoptosis, summary for cancer cells; type: cell-based
Method: as §1, §2, §9

human HDAC-4 = assay: Antisense ODN screen, HDAC-4 RNA, T24 cells; type: cell-based; conditions: 100 nM, 24 hours, Northern blot
Method: Seventeen phosphorothioate ODNs containing sequences complementary to the 5′ or 3′ UTR of the human HDAC-4 gene (GenBank Accession No. AB006626) were screened as above. […] HDAC-4 MM1 and MM2 oligonucleotides were created as controls; compared to the antisense oligonucleotides, they each contain a 6-base mismatch.
as §3, §6

human HDAC-7 = assay: Antisense ODN screen, HDAC-7 RNA, T24 cells; type: cell-based; conditions: 100 nM, 24 hours, Northern blot
Method: Eighteen phosphorothioate ODNs containing sequences complementary to the 5′ or 3′ untranslated regions of the human HDAC-7 gene (GenBank Accession No. AF239243) were screened as above.
as §3, §5

human HDAC-3 = assay: Antisense ODN screen, HDAC-3 RNA, T24 cells; type: cell-based; conditions: 100 nM, 24 hours, Northern blot
Method: Twenty-one phosphorothioate ODNs containing sequences complementary to the 5′ or 3′ UTR of the human HDAC-3 gene (GenBank Accession No. AF039703) were screened as above. […] HDAC-3 MM oligonucleotide was created as a control; compared to the antisense oligonucleotide, it contains a 6-base mismatch.
as §3, §6

HDAC-3 protein = assay: Western blot of HDAC isotype protein expression in A549 cells, HDAC-3; type: cell-based, human; conditions: 50 nM, 48 hours
Method: as §7, §8

A549 [7] = assay: Cell growth inhibition, trypan blue cell count; type: cell-based, human; conditions: A549 cancer cells, 50 nM, 72 hours
Method: as §1, §9

HMEC [8] = assay: Cell growth inhibition, trypan blue cell count; type: cell-based, human; conditions: HMEC normal cells, 50 nM, 72 hours
Method: as §1, §9

T24 [9] = assay: Cell growth inhibition, trypan blue cell count; type: cell-based, human; conditions: T24 cancer cells, 50 nM, 72 hours
Method: as §1, §9

CC(/C=C/C(=O)NO)=C\[C@@H](C)C(=O)c1ccc(N(C)C)cc1 [TSA, (R)-Trichostatin A, reference compound]
Apoptosis After 48 Hour Treatment (A549 [1]): ++ (“++”: 3-5X fold) | Apoptosis After 48 Hour Treatment (HMEC [2]): + (“+”: 2-3X fold) | Apoptosis After 48 Hour Treatment (MDAmb231 [3]): ++ (“++”: 3-5X fold) | Apoptosis After 48 Hour Treatment (T24 [4]): ++ (“++”: 3-5X fold) | inhibition of mammalian HDAC (mammalian HDAC): potent inhibitor | induction of differentiation in murine erythroleukemia cells [5]: potent inducer of differentiation

5′-GAAACGTGAGGGACTCAGCA-3′ (chemistry not given here) [HDAC-1 AS1]
antisense activity to human HDAC-1 (HDAC-1 RNA expression) (human HDAC-1): antisense activity | Apoptosis After 48 Hour Treatment (A549 [1]): + (“+”: 2-3X fold) | Apoptosis After 48 Hour Treatment (HMEC [2]): − (“−”: <= 2x fold over non-specific background) | Apoptosis After 48 Hour Treatment (T24 [4]): − (“−”: <= 2x fold over non-specific background) | expression of cyclin B1 (cyclin B1): repress expression | expression of cyclin A (cyclin A): repress expression

5′-CTTCGGTCTCACCTGCTTGG-3′ (sugars from the 5' end m4 d12 m4, all phosphorothioate, methylation of C and T or U not given here) [HDAC-5 AS]
antisense activity to human HDAC-5 (human HDAC-5): antisense activity

5′-GCTGAGCTGTTCTGATTTGG-3′ (chemistry not given here) [HDAC-2 AS]
antisense activity to human HDAC-2 (human HDAC-2): antisense activity | HDAC-2 protein expression (HDAC-2 protein): specifically inhibits | Growth Inhibition (AS vs. MM) (MDAmb231 [6]): − (“−”: no inhibition) | Apoptosis After 48 Hour Treatment (A549 [1]): − (“−”: <= 2x fold over non-specific background) | Apoptosis After 48 Hour Treatment (HMEC [2]): − (“−”: <= 2x fold over non-specific background) | Apoptosis After 48 Hour Treatment (MDAmb231 [3]): − (“−”: <= 2x fold over non-specific background) | Apoptosis After 48 Hour Treatment (T24 [4]): − (“−”: <= 2x fold over non-specific background) | growth of A549 cells in soft agar (A549 cells): do not | cancer cell growth inhibition (human cancer cells; summary of Table 3): minimal effect

5′-TACAGTCCATGCAACCTCCA-3′ [HDAC-4 AS2]
antisense activity to human HDAC-4 (human HDAC-4): antisense activity

5′-CTTCAGCCAGGATGCCCACA-3′ (sugars from the 5' end m4 d12 m4, all phosphorothioate, methylation of C and T or U not given here) [HDAC-7 AS]
antisense activity to human HDAC-7 (human HDAC-7): antisense activity

5′-GGAAGCCAGAGCTGGAGAGG-3′ (chemistry not given here) [HDAC-1 AS2]
antisense activity to human HDAC-1 (HDAC-1 RNA expression) (human HDAC-1): antisense activity | expression of cyclin B1 (cyclin B1): repress expression | expression of cyclin A (cyclin A): repress expression

5′-CGCTTTCCTTGTCATTGACA-3′ (chemistry not given here) [HDAC-3 AS]
antisense activity to human HDAC-3 (human HDAC-3): antisense activity | HDAC-3 protein expression (HDAC-3 protein): specifically inhibits | Growth Inhibition (AS vs. MM) (A549 [7]): − (“−”: no inhibition) | Growth Inhibition (AS vs. MM) (HMEC [8]): − (“−”: no inhibition) | Growth Inhibition (AS vs. MM) (MDAmb231 [6]): − (“−”: no inhibition) | Growth Inhibition (AS vs. MM) (T24 [9]): − (“−”: no inhibition) | Apoptosis After 48 Hour Treatment (A549 [1]): − (“−”: <= 2x fold over non-specific background) | Apoptosis After 48 Hour Treatment (HMEC [2]): − (“−”: <= 2x fold over non-specific background) | Apoptosis After 48 Hour Treatment (MDAmb231 [3]): − (“−”: <= 2x fold over non-specific background) | Apoptosis After 48 Hour Treatment (T24 [4]): − (“−”: <= 2x fold over non-specific background) | growth arrest and apoptosis of human cancer cells (human cancer cells; Tables 3 and 4): no effect
